# In patent publication US20160331662A1, “Compositions that Inhibit and Prevent the Formation of Dental Caries and Methods of Using the Same” (priority 2014, published 2016):
# Assays:
# SspB VheI (S. gordonii) = assay: SPR binding of SRCR peptide to immobilized surface protein (Example 3)
# Experimental: (§1) Binding of the SRCR peptide […] (SEQ ID NO: 10) to immobilized bacterial surface proteins was determined using procedures as described in Example 1.
# (§2) The interaction of the SRCR peptide […] (SEQ ID NO:10) with immobilized bacterial surface proteins AgI/II, SspB and GbpC as examined by surface plasmon resonance studies are shown in FIGS. 27A, 27B and 27C respectively, and binding affinities determined from these studies are listed in Table 8.
# AgI/II VheI (S. mutans) = assay: as above
# AgI/II VheI (S. mutans), sequence (P23504 464-840 limits assumed): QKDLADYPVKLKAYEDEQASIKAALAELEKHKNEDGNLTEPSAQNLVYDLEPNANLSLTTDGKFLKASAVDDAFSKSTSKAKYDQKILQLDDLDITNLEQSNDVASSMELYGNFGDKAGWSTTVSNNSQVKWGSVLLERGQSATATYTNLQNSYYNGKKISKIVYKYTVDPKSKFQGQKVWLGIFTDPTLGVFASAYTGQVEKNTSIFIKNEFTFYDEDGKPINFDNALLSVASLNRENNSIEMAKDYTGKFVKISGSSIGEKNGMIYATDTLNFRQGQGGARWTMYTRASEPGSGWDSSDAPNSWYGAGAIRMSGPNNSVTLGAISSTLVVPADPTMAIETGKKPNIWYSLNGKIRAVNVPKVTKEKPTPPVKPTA
# Experimental: as §1, §2
# GbpC (S. mutans) = assay: as above
# Experimental: as §1, §2
# iSRCR1 [1] = molecular target: T1, iSRCR1 (Homo sapiens, UniProt Q9UGM3); assay: Competition adherence SPR on immobilized iSRCR1; assay type: binding; conditions: FL injected first
# T1 construct: strongly proves that a single SRCR domain contains the adherence sites for AgI/II and SspB; made in house; host or cells: Drosophila expression system
# T1 sequence (Q9UGM3 102-202 limits assumed): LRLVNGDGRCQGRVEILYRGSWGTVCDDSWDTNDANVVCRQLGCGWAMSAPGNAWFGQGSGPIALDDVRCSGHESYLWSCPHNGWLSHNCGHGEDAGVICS
# Experimental: (§3) To determine whether AgI/II domains bound to the same site on SRCR domains, competitive binding SPR experiments were conducted in triplicates as previously described where each fragment of AgI/II (FL, A3VP1, or C123) or SspB (FL, A3VP1 or C123) was initially passed over the chip surface immobilized with either iSRCR1, iSRCR123 or SAG for 60 seconds to saturate available binding sites. The response curve of AgI/II or SspB first fragment was recorded, where the maximal RU (RU1) was considered as the base line for the second injection, and thereafter the competing fragment was injected and its response was recorded as RU2. The adherence of the second fragment was then calculated (RU2−RU1) for all SPR competing assay as reported earlier.
# iSRCR123 [2] = molecular target: T2, iSRCR123 (Homo sapiens, UniProt Q9UGM3); assay: SPR binding of analytes to immobilized iSRCR123 (CM5 chip, 1:1 Langmuir); conditions: for direct binding to immobilized iSRCR123 (in words): substance alone over CM5 chip
# T2 construct: multiple SRCR domains have better adherence capability compared to that of a single SRCR domain; made in house; host or cells: Drosophila expression system
# T2 sequence (Q9UGM3 102-463 limits assumed): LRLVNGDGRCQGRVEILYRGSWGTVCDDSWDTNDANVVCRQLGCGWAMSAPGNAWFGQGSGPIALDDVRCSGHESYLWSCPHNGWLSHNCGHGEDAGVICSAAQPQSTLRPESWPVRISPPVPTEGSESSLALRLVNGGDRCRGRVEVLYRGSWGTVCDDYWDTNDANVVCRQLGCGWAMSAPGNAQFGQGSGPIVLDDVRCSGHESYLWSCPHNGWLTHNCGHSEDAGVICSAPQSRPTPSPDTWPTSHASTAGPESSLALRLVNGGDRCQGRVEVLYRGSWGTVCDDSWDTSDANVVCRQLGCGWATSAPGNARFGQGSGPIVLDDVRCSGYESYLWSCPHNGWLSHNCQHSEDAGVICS
# Experimental: (§4) Real time binding analyses of the SRCR domains with AgI/II fragments were carried out using the BIAcore 2000 system. […] Self association of iSRCR1 or iSRCR123 (at 2 μM) were also determined in a similar manner as described above. Finally to determine the effect of calcium SPR analysis was carried out by dialyzing the analytes and ligands in binding buffer devoid of CaCl2.
# (§5) In addition, the SRCR holding two distinct surfaces compounded the elucidation of individual kinetics, and presently there are no modeling protocols available to determine the individual affinities for such a system, therefore for simplicity we have utilized a single site 1:1 Langmuir model. All experiments were carried out in triplicates and the kinetics of the association (KA) and dissociation (KD) rate constants were deduced using the 1:1 Langmuir Kinetic model on the BIA-Evaluation software. The concentration (C in μM) of analyte (FL^AgI/II or FL^SspB at 2 μM) that adhered to the immobilized ligand (iSRCR1, iSRCR123) within the flow cell was calculated using the formula C=(RU/MW)×(1/V), where RU is resonance unit (1 RU=1 pg of bound protein), MW is molecular weight of analyte and V is volume of flow cell (1.2×10^−10 L).
# iSRCR123 [3] = molecular target: T2, iSRCR123; assay: Competition adherence SPR on immobilized iSRCR123; assay type: binding; conditions: FL injected first
# Experimental: as §3
# iSRCR1 [4] = molecular target: T1, iSRCR1; assay: SPR binding of analytes to immobilized iSRCR1 (CM5 chip, 1:1 Langmuir); conditions: for direct binding to immobilized iSRCR1 (in words): substance alone over CM5 chip
# Experimental: as §4, §5
# [5] = molecular target: T3, iSRCR123 (Deglycosylated) (Homo sapiens, UniProt Q9UGM3); assay: SPR binding of analytes to on-chip deglycosylated iSRCR123; conditions: ligand iSRCR123 (Deglycosylated)
# T3 construct: multiple SRCR domains have better adherence capability compared to that of a single SRCR domain; made in house; host or cells: Drosophila expression system
# T3 sequence (Q9UGM3 102-463 limits assumed): as above
# Experimental: as §4
# (§6) On-chip Deglycosylation of the iSRCR1 and iSRCR123 was carried out after immobilizing them on CM5 sensor chip. Enzymatic deglycosylation was done to remove N- and O-linked carbohydrates from iSRCR1 and iSRCR123. Briefly, after immobilization of iSRCR1 and iSRCR123, deglycosylation was carried out at native conditions by incubating the entire chip surface externally with a cocktail containing a total reaction volume of 40 μl made up of 4 μl of 10×G7reaction buffer, 4 μl of 10% NP40, 4 μl of Neuraminidase (Sigma), 18 μl water and 10 μl of O-glycosidase (New England Biolabs, Inc.,) and similarly following manufacturers protocols for EndoH (New England Biolabs, Inc). Later, the chip was sealed and incubated overnight at 37° C. Subsequently the chip was thoroughly washed with binding buffer (20 mM HEPES, 150 mM NaCl, 2.5 mM CaCl2) to remove the deglycosylating enzymes and other remnants. Binding studies with FL^AgI/II and FL^SspB and subfragments were then carried out as described above and regenerated as described in Table 2.
# as §5
# SAG = molecular target: T4, SAG (Homo sapiens, UniProt Q9UGM3); conditions: from reference [15]; read-out: affinity of interaction with SAG; cited from earlier work
# T4 construct: from tissue; host or cells: saliva (purified SAG, gift)
# T4 sequence (Q9UGM3 20-2413): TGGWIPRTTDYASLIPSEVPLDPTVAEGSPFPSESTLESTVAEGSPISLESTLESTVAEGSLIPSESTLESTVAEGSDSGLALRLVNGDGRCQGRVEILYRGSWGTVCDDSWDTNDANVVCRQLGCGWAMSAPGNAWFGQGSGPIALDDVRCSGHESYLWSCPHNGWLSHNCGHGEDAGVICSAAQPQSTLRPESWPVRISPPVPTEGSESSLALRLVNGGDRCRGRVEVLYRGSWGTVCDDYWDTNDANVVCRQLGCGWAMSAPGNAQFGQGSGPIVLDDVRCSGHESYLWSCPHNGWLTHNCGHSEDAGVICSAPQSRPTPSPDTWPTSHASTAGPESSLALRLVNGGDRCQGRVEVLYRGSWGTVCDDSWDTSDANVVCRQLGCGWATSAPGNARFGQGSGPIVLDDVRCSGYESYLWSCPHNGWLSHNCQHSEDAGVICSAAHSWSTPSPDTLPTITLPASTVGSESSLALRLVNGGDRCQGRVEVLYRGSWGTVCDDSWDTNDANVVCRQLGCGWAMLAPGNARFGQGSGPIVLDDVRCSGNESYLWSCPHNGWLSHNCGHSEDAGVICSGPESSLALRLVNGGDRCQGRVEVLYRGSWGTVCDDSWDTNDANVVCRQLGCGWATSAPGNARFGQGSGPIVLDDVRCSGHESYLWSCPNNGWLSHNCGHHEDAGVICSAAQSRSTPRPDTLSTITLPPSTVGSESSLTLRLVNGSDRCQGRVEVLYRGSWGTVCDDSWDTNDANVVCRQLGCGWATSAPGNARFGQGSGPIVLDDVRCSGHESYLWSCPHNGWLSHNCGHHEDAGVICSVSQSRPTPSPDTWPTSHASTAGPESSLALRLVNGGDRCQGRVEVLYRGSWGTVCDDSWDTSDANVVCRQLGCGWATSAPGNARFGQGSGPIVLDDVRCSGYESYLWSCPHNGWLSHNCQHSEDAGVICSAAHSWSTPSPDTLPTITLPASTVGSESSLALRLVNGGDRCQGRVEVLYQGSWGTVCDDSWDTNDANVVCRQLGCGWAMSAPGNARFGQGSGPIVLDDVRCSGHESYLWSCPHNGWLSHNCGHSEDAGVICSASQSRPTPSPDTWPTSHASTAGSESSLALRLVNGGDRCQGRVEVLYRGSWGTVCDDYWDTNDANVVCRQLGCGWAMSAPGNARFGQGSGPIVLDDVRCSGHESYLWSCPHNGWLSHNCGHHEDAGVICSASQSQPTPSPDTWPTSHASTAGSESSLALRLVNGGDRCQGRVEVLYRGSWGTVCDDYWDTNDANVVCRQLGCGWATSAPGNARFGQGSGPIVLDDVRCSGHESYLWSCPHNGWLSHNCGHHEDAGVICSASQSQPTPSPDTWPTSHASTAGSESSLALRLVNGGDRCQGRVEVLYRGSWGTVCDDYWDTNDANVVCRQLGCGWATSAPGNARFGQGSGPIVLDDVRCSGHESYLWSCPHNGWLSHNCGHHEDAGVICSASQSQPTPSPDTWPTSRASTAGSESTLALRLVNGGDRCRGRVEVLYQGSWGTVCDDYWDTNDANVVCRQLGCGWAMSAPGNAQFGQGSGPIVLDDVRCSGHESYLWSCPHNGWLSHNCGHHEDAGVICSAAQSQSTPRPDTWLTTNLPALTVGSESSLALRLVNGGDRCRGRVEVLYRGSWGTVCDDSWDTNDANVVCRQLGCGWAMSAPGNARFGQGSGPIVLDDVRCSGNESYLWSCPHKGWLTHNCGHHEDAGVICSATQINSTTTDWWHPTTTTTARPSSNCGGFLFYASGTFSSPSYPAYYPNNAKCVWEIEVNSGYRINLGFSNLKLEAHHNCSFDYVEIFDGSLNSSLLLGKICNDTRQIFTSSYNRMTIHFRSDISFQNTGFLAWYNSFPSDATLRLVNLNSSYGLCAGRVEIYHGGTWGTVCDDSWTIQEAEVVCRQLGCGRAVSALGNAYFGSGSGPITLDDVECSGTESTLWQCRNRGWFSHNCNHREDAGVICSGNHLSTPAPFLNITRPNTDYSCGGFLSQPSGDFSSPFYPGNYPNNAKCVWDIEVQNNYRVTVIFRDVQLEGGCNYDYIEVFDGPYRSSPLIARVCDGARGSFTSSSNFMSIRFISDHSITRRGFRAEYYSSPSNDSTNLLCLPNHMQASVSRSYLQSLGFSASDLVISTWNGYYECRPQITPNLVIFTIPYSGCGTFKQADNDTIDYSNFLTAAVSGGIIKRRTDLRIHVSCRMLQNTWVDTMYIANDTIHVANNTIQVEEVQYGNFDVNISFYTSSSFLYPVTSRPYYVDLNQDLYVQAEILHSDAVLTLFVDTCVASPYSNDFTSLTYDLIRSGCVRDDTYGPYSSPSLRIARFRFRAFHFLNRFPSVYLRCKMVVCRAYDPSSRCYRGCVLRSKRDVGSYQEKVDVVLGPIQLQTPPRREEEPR
# iSRCR1 (Deglycosylated) = molecular target: T5, iSRCR1 (Deglycosylated) (Homo sapiens, UniProt Q9UGM3); assay: SPR binding of analytes to on-chip deglycosylated iSRCR1; conditions: ligand iSRCR1 (Deglycosylated)
# T5 construct: strongly proves that a single SRCR domain contains the adherence sites for AgI/II and SspB; made in house; host or cells: Drosophila expression system
# T5 sequence (Q9UGM3 102-202): as the sequence (Q9UGM3 102-202 limits assumed) above
# Experimental: as §4, §6, §5
# S. mutans UA159 [6] = assay: Confocal microscopy of iSRCR adherence to bacteria; assay type: cell-based; conditions: 10 μM
# Experimental: S. mutans UA159 and S. gordonii DL1 were grown overnight in TSY (30 g/L of Trypticase soy broth and 0.5 g/L yeast extract, pH 7.2) media on an eight-well Lab Tek Chamber slide system (Sigma). The cells were fixed with 3% paraformaldehyde, washed with binding buffer (20 mM HEPES pH 7.4, 150 mM NaCl and 2.5 mM CaCl2), and thereafter iSRCR1 or iSRCR123 (10 μM) were added to the cells and incubated for 60 min. The unbound SRCRs were removed by repeated washing using the binding buffer. Subsequently, Alexa fluor 488 conjugated Anti-His-tag antibody (EMD Millipore, Inc) (1:50 dilution) that can bind to the His Tag on SRCRs was added. After 60 min incubation the unbound antibody was washed away thoroughly using binding buffer, and the chamber walls were gently removed. Cover slips were then mounted with 15 μl of fluoromount-G with DAPI (Southern Biotech Inc) to stain bacterial nuclei and were sealed until ready to be imaged. The experiment without SRCRs served as control. All slides were imaged using Leica SP1 UV Confocal Laser Scanning Microscope and Zeiss LSM 710 Confocal Laser Scanning Microscope at the UAB-High resolution imaging facility (UAB-HRIF).
# S. gordonii DL1 [7] = assay: Flow cytometric analysis of iSRCR adherence to bacteria; assay type: cell-based; conditions: 10 μM, compared with S. mutans
# Experimental: (§7) S. mutans UA159 and S. gordonii DL1 cells were grown overnight in TSY broth media at 37° C. and washed thoroughly with FACS buffer (20 mM HEPES pH 7.4, 150 mM NaCl and 5% non-fat dry milk) to reduce non-specific binding. Subsequently, 10 μM of iSRCR1 or iSRCR123 were added to 100 μl of cells (1×10^7 cells/ml) in binding buffer (FACS buffer+2.5 mM CaCl2) and incubated for 60 min at 37° C. The cells were later washed thoroughly with binding buffer to remove unbound iSRCRs. Subsequently, Anti-His tag Alexafluor 488 antibody (1:50 dilution) (EMD Millipore, Inc) that adheres to the His tag present on SRCRs was added to the cells and incubated for 30 min, washed three times and resuspended in 200 μl of binding buffer. Samples without iSRCRs served as control. Samples were then assayed using the FACScan machine (BD Biosciences) at the Analytical and Preparative Cytometry Facility (APCF) at UAB, and data obtained was analyzed using FlowJo 7.2.4 software.
# S. mutans UA159 [8] = assay: as above; assay type: cell-based; conditions: 10 μM
# Experimental: as §7
# S. gordonii DL1 [9] = assay: Aggregation assay (OD700 over 60 min); assay type: cell-based; conditions: iSRCR 10 μM or SAG, 6 mM CaCl2
# Experimental: (§8) Aggregation assays were performed as described earlier with slight modifications. Briefly, S. mutans UA159 and S. gordonii DL1 cells were grown in TSY broth media overnight at 37° C. in the presence of 5% CO2. The bacteria were centrifuged at 5000×g and washed with a buffer containing 20 mM HEPES pH 7.4, 150 mM NaCl and re-suspended to an approximate OD700 of 1. The bacterial suspension (900 μl) was mixed with 100 μl of SAG or iSRCR1 (10 μM) or iSRCR123 ([…]) or commercially synthesized (Think Peptides, Inc) SRCRP2 peptide with fluorescein amidite (FAM) at the carboxyl end ([…]-[FAM]) (SEQ ID NO:9, at both 400 μg/ml and 1 mg/ml) in the presence of 6 mM CaCl2 and aggregation was measured by recording OD700over 60 min at 5 min intervals, where the buffer alone was used as control. All experiments were carried out at least five times, and the results were analyzed with One-way ANOVA. Post-hoc testing where *, P<0.05 was considered statistically significant and results were presented as the percentage of cells aggregated.
# S. mutans UA159 [10] = assay: Aggregation assay (OD700 over 60 min); assay type: cell-based; conditions: iSRCR 10 μM or SAG, 6 mM CaCl2
# Experimental: as §8
substance,measurement,setting,value
ETNDANVVARQL [SRCR peptide],KA,SspB VheI (S. gordonii),1.42e+08 M⁻¹
same,Kd,SspB VheI (S. gordonii),7.02 nM
same,Rmax,SspB VheI (S. gordonii),110 Ru
same,ka,SspB VheI (S. gordonii),4.44 × 10^6 1/ms
same,kd,SspB VheI (S. gordonii),0.0312 s⁻¹
same,KA,AgI/II VheI (S. mutans),1.56e+08 M⁻¹
same,Kd,AgI/II VheI (S. mutans),6.42 nM
same,Rmax,AgI/II VheI (S. mutans),43.3 Ru
same,ka,AgI/II VheI (S. mutans),1.08 × 10^7 1/ms
same,kd,AgI/II VheI (S. mutans),0.696 s⁻¹
same,KA,GbpC (S. mutans),2.57e+08 M⁻¹
same,Kd,GbpC (S. mutans),3.89 nM
same,Rmax,GbpC (S. mutans),232 Ru
same,ka,GbpC (S. mutans),1.47 × 10^7 1/ms
same,kd,GbpC (S. mutans),0.0573 s⁻¹
FL^AgI/II: S. mutans AgI/II full length construct (167.5 kDa),inhibition of binding of the A3VP1 fragment of the same protein,iSRCR1 [1],46%
same,inhibition of binding of the C123 fragment of the same protein,iSRCR1 [1],36%
same,"quantity of protein that adhered to iSRCR123, higher than iSRCR1","iSRCR123 [2]; analyte at 2 μM, iSRCR123 versus iSRCR1",16%
same,KA,iSRCR123 [2]; ligand iSRCR123,1.34e+08 M⁻¹
same,Kd,iSRCR123 [2]; ligand iSRCR123,7.46 nM
same,ka,iSRCR123 [2]; ligand iSRCR123,99700 M⁻¹ s⁻¹
same,kd,iSRCR123 [2]; ligand iSRCR123,0.000743 s⁻¹
same,inhibition of binding of the A3VP1 fragment of the same protein,iSRCR123 [3],44%
same,inhibition of binding of the C123 fragment of the same protein,iSRCR123 [3],25%
same,KA,iSRCR1 [4]; ligand iSRCR1,1.31e+08 M⁻¹
same,Kd,iSRCR1 [4]; ligand iSRCR1,7.69 nM
same,ka,iSRCR1 [4]; ligand iSRCR1,127000 M⁻¹ s⁻¹
same,kd,iSRCR1 [4]; ligand iSRCR1,0.000976 s⁻¹
same,KA,[5],6.82e+06 M⁻¹
same,Kd,[5],147 nM
same,ka,[5],3160 M⁻¹ s⁻¹
same,kd,[5],0.000464 s⁻¹
same,Kd,SAG,33.3 nM
same,KA,iSRCR1 (Deglycosylated),865000 M⁻¹
same,Kd,iSRCR1 (Deglycosylated),1160 nM
same,ka,iSRCR1 (Deglycosylated),49700 M⁻¹ s⁻¹
same,kd,iSRCR1 (Deglycosylated),0.0575 s⁻¹
Lysozyme [reference compound],direct binding to immobilized iSRCR123 (in words),iSRCR123 [2],binding
same,direct binding to immobilized iSRCR1 (in words),iSRCR1 [4],binding
iSRCR123: recombinant construct of three tandem SRCR domains of Gp340 (43 kDa),binding to cells by confocal microscopy (in words),S. mutans UA159 [6],binding
same,adherence by FACS (in words),S. gordonii DL1 [7],lower adherence
same,increase in fluorescence intensity compared to the control,S. mutans UA159 [8],~100 fold
same,percentage of cells aggregated,S. gordonii DL1 [9],48%
same,percentage of cells aggregated,S. mutans UA159 [10],69%
thaumatin [reference compound],direct binding to immobilized iSRCR123 (in words),iSRCR123 [2],not
same,direct binding to immobilized iSRCR1 (in words),iSRCR1 [4],not
